The source of these data is PMC8526983 (The Journal of Biological Chemistry, 2021).

For the test, the target named is T1, PfK5ΔL6-MD (Plasmodium falciparum, UniProt O77382, DEL175-269).
T1 construct: gene PF3D7_0317500
As to conditions: read-out: KATP; 1 μM GMPCPP-stabilised Sus scrofa microtubules; 50 mM Tris-HCl pH 8, KCl, 2 mM MgCl2, 2 mM DTT; 26 °C.

As to `Nc1ncnc2c1ncn2[C@@H]1O[C@H](COP(=O)(O)OP(=O)(O)OP(=O)(O)O)[C@@H](O)[C@H]1O` [ATP], the Km was 9.5 µM.
